Assay results published in patent US20110105491A1, “THIAZOLIDINE COMPOUNDS AS OREXIN RECEPTOR ANTAGONISTS” (priority 2008, published 2011).
Read-outs that look alike come from different tables or passages of the source.

Key:
human orexin-1 receptor = biological target: T1, human orexin-1 receptor (Homo sapiens, UniProt O43613); test: FLIPR calcium assay of orexin receptor antagonistic activity, CHO cells expressing human orexin-1 receptor; assay type: cell-based; settings: read-out: OX1 IC50
T1 construct: expressed in transfected cells; host or cells: Chinese hamster ovary (CHO) cells
T1 sequence (O43613 1-425): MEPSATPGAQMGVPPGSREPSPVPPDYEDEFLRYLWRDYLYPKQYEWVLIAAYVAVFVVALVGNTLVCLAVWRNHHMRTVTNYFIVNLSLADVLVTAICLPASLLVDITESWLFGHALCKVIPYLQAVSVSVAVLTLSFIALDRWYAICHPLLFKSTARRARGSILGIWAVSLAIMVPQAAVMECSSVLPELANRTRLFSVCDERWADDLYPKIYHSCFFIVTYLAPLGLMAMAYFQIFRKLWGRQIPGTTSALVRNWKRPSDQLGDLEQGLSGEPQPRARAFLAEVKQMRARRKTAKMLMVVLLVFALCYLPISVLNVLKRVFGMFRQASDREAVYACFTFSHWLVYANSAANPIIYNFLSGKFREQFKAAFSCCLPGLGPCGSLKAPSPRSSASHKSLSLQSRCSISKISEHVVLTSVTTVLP
Method: (§1) The orexin receptor antagonistic activity of the compounds of formula (I) is determined in accordance with the following experimental method.
(§2) Chinese hamster ovary (CHO) cells expressing the human orexin-1 receptor and the human orexin-2 receptor, respectively, are grown in culture medium (Ham F-12 with L-Glutamine) containing 300 μg/ml G418, […] penicillin, 100 μg/ml streptomycin and 10% heat inactivated fetal calf serum (FCS). The cells are seeded at 20′000 cells/well into 384-well black clear bottom sterile plates (Greiner). The seeded plates are incubated overnight at 37° C. in 5% CO2.
(§3) Human orexin-A as an agonist is prepared as 1 mM stock solution in MeOH:water (1:1), diluted in HBSS containing 0.1% bovine serum albumin (BSA), NaHCO3: 0.375 g/l and 20 mM HEPES for use in the assay at a final concentration of 3 nM.
(§4) Antagonists are prepared as 10 mM stock solution in DMSO, then diluted in 384-well plates using DMSO followed by a transfer of the dilutions into in HBSS containing 0.1% bovine serum albumin (BSA), NaHCO3: 0.375 g/l and 20 mM HEPES. On the day of the assay, 50 μl of staining buffer (HBSS containing 1% FCS, 20 mM HEPES, NaHCO3: 0.375 g/l, 5 mM probenecid (Sigma) and 3 μM of the fluorescent calcium indicator fluo-4 AM (1 mM stock solution in DMSO, containing 10% pluronic) is added to each well. The 384-well cell-plates are incubated for 50 min at 37° C. in 5% CO2 followed by equilibration at rt for 30-120 min before measurement.
(§5) Within the Fluorescent Imaging Plate Reader (FLIPR Tetra, Molecular Devices), antagonists are added to the plate in a volume of 10 μl/well, incubated for 10 min and finally […] of agonist is added. Fluorescence is measured for each well at 1 second intervals, and the height of each fluorescence peak is compared to the height of the fluorescence peak induced by 3 nM orexin-A with vehicle in place of antagonist. For each antagonist, the IC50 value (the concentration of compound needed to inhibit 50% of the agonistic response) is determined and may be normalized using the obtained IC50 value of a on-plate reference compound (normalized values in Table 1 are indicated by an asterisk *). Optimized conditions were achieved by adjustment of pipetting speed and cell splitting regime. The calculated IC50 values of the compounds may fluctuate depending on the daily cellular assay performance. Fluctuations of this kind are known to those skilled in the art.

human orexin-2 receptor = biological target: T2, human orexin-2 receptor (Homo sapiens, UniProt O43614); test: FLIPR calcium assay of orexin receptor antagonistic activity, CHO cells expressing human orexin-2 receptor; assay type: cell-based; settings: read-out: OX2 IC50
T2 construct: expressed in transfected cells; host or cells: Chinese hamster ovary (CHO) cells
T2 sequence (O43614 1-444): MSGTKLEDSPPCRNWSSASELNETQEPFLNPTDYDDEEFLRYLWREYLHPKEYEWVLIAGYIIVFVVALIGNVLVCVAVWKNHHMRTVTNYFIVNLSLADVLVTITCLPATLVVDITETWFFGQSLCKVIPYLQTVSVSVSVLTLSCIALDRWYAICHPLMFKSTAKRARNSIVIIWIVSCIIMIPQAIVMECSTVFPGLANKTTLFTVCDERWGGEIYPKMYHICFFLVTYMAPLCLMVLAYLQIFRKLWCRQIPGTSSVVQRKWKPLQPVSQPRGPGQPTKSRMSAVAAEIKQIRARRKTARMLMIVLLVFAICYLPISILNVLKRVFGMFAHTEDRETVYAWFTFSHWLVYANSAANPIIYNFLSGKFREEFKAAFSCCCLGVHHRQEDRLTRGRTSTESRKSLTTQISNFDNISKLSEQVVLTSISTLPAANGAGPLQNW
Method: as §1, §2, §3, §4, §5

rat = settings: cited from earlier work
rat model = settings: cited from earlier work
[1] = tested on: rat model of post-traumatic stress disorder; settings: cited from earlier work
[2] = 3 nM orexin-A as agonist, not normalized, *2/*3 = geometric mean of n = 2/3 values

| IC50 (human orexin-1 receptor; [2]) | IC50 (human orexin-2 receptor; [2]) | IC50 (human orexin-1 receptor) | IC50 (human orexin-2 receptor) | Structure (SMILES) | other results |
| --- | --- | --- | --- | --- | --- |
| 12 nM | 10 nM | – | – | Cc1ccc(-c2ccccc2C(=O)N2CCSC2CNC(=O)c2cccc3ncsc23)cc1C (racemic) [Example 72, rac-Benzothiazole-7-carboxylic acid [3-(3′,4′-dimethyl-biphenyl-2-carbonyl)-thiazolidin-2-ylmethyl]-amide] | – |
| 4 nM | 4 nM | – | – | Cc1nc(C(=O)N2CCSC2CNC(=O)c2cccc3c2CCO3)c(-c2ccc(F)cc2)s1 (racemic) [Example 77, rac-2,3-Dihydro-benzofuran-4-carboxylic acid {3-[5-(4-fluoro-phenyl)-2-methyl-thiazole-4-carbonyl]-thiazolidin-2-ylmethyl}-amide] | – |
| 14 nM | 11 nM | – | – | Cc1cccc(-c2oc(C)nc2C(=O)N2CCSC2CNC(=O)c2cccc3ncsc23)c1 (racemic) [Example 83, rac-Benzothiazole-7-carboxylic acid [3-(2-methyl-5-m-tolyl-oxazole-4-carbonyl)-thiazolidin-2-ylmethyl]-amide] | – |
| 4 nM | 7 nM | – | – | Cc1nc(C(=O)N2CCSC2CNC(=O)c2cccc3ncsc23)c(-c2ccccc2)o1 (racemic) [Example 88, rac-Benzothiazole-7-carboxylic acid [3-(2-methyl-5-phenyl-oxazole-4-carbonyl)-thiazolidin-2-ylmethyl]-amide] | – |
| 7 nM | 8 nM | – | – | COc1cccc(-c2oc(C)nc2C(=O)N2CCSC2CNC(=O)c2cccc3ncsc23)c1 (racemic) [Example 104, rac-Benzothiazole-7-carboxylic acid {3-[5-(3-methoxy-phenyl)-2-methyl-oxazole-4-carbonyl]-thiazolidin-2-ylmethyl}-amide] | – |
| 7 nM | 10 nM | – | – | Cc1cccc(-c2sccc2C(=O)N2CCSC2CNC(=O)c2cccc3ncsc23)c1 (racemic) [Example 109, rac-Benzothiazole-7-carboxylic acid [3-(2-m-tolyl-thiophene-3-carbonyl)-thiazolidin-2-ylmethyl]-amide] | – |
| 8 nM | 7 nM | – | – | Cc1nc(C(=O)N2CCSC2CNC(=O)c2cccc3ncsc23)c(-c2ccc(C)c(F)c2)s1 (racemic) [Example 120, rac-Benzothiazole-7-carboxylic acid {3-[5-(3-fluoro-4-methyl-phenyl)-2-methyl-thiazole-4-carbonyl]-thiazolidin-2-ylmethyl}-amide] | – |
| – | – | 4 nM | 15 nM | COc1ncccc1C(=O)NCC1SCCN1C(=O)c1nc(C)sc1-c1cccc(C)c1 (racemic) [Example 160, rac-2-Methoxy-N-[3-(2-methyl-5-m-tolyl-thiazole-4-carbonyl)-thiazolidin-2-ylmethyl]-nicotinamide] | – |
| – | – | 5 nM | 41 nM | Cc1cccc(-c2sc(C)nc2C(=O)N2CCSC2CNC(=O)c2cccc(C(F)(F)F)n2)c1 (racemic) [Example 162, rac-6-Trifluoromethyl-pyridine-2-carboxylic acid [3-(2-methyl-5-m-tolyl-thiazole-4-carbonyl)-thiazolidin-2-ylmethyl]-amide] | – |
| – | – | 6 nM | 5 nM | Cc1cccc(-c2sc(C)nc2C(=O)N2CCSC2CNC(=O)c2sc(C)nc2C)c1 (racemic) [Example 165, rac-2,4-Dimethyl-thiazole-5-carboxylic acid [3-(2-methyl-5-m-tolyl-thiazole-4-carbonyl)-thiazolidin-2-ylmethyl]-amide] | – |

More lines, now with the values behind:

| Structure (SMILES) | IC50 (human orexin-1 receptor; [2]) | IC50 (human orexin-2 receptor; [2]) | IC50 (human orexin-1 receptor) | IC50 (human orexin-2 receptor) | other results |
| --- | --- | --- | --- | --- | --- |
| Cc1nc(C(=O)N2CCSC2CNC(=O)c2cccc3c2OCCO3)c(-c2cccc(F)c2)o1 (racemic) [Example 95, rac-2,3-Dihydro-benzo[1,4]dioxine-5-carboxylic acid {3-[5-(3-fluoro-phenyl)-2-methyl-oxazole-4-carbonyl]-thiazolidin-2-ylmethyl}-amide] | 23 nM | 68 nM | – | – | – |
| O=C(NCC1SCCN1C(=O)c1nc(C2CC2)sc1-c1cccc(F)c1)c1cccc2c1CCO2 (racemic) [Example 116, rac-2,3-Dihydro-benzofuran-4-carboxylic acid {3-[2-cyclopropyl-5-(3-fluoro-phenyl)-thiazole-4-carbonyl]-thiazolidin-2-ylmethyl}-amide] | 2 nM | 5 nM | – | – | – |
| Cc1nc(C(=O)N2CCSC2CNC(=O)c2nn(C)c3ccccc23)c(-c2ccc(C)c(F)c2F)s1 (racemic) [Example 126, rac-1-Methyl-1H-indazole-3-carboxylic acid {3-[5-(2,3-difluoro-4-methyl-phenyl)-2-methyl-thiazole-4-carbonyl]-thiazolidin-2-ylmethyl}-amide] | 11 nM | 11 nM | – | – | – |
| Cc1cccc(-c2sc(N(C)C)nc2C(=O)N2CCSC2CNC(=O)c2cccc3c2CCO3)c1 (racemic) [Example 128, rac-2,3-Dihydro-benzofuran-4-carboxylic acid [3-(2-dimethylamino-5-m-tolyl-thiazole-4-carbonyl)-thiazolidin-2-ylmethyl]-amide] | 12 nM | 14 nM | – | – | – |
| CCc1onc(C)c1C(=O)NCC1SCCN1C(=O)c1nc(C)sc1-c1cccc(C)c1 (racemic) [Example 140, rac-5-Ethyl-3-methyl-isoxazole-4-carboxylic acid [3-(2-methyl-5-m-tolyl-thiazole-4-carbonyl)-thiazolidin-2-ylmethyl]-amide] | – | – | 9 nM | 9 nM | – |
| Cc1cccc(-c2sc(C)nc2C(=O)N2CCSC2CNC(=O)c2cnn(C)c2C(F)(F)F)c1 (racemic) [Example 142, rac-1-Methyl-5-trifluoromethyl-1H-pyrazole-4-carboxylic acid [3-(2-methyl-5-m-tolyl-thiazole-4-carbonyl)-thiazolidin-2-ylmethyl]-amide] | – | – | 5 nM | 12 nM | – |
| Cc1cccc(-c2sc(C)nc2C(=O)N2CCSC2CNC(=O)c2nc(C)oc2C)c1 (racemic) [Example 163, rac-2,5-Dimethyl-oxazole-4-carboxylic acid [3-(2-methyl-5-m-tolyl-thiazole-4-carbonyl)-thiazolidin-2-ylmethyl]-amide] | – | – | 5 nM | 8 nM | – |
| CNC(=O)[C@@H](c1ccccc1)N1CCc2cc(OC)c(OC)cc2[C@@H]1CCc1ccc(C(F)(F)F)cc1 [(2R)-2-{(1S)-6,7-dimethoxy-1-[2-(4-trifluoromethyl-phenyl)-ethyl]-3,4-dihydro-1H-isoquinolin-2-yl}-N-methyl-2-phenyl-acetamide] | – | – | – | – | alertness (active wake and locomotion) (rat): decrease alertness; time spent in REM and NREM sleep (rat): dose-dependently increase the time spent in both REM and NREM sleep; memory function (rat model): enhance memory function; activity in model of post-traumatic stress disorder [1]: active |
